Measurements published in US10450322B2, “Low molecular weight derivatives of carboxamide halogenated porphyrins, namely chlorins and bacteriochlorins, and their applications thereof” (LUZITIN, S.A., priority 2015, dated 2019).

Tests used:
[1] = Fluorescence emission, quantum yield and lifetime; format: physicochemical; details: in ethanol
Protocol: The fluorescence emission spectra were recorded in the homemade setup composed of a Horiba-Jobin Fluoromax 4, used to excite the samples, connected to a sample holder through an optical fiber. In the sample holder, perpendicular to excitation fiber, an optical fiber is connected to drive the emission light to the spectrophotometer detector Avantes model SensLine, provided with AvaSoft 7.7.2. The excitation slit was set at 2 mm and the integration time was 3 s, with average number of 3. The spectra were collected from 200 nm up to 1100 nm using standard cuvettes of 1 cm of optical path. Fluorescence quantum yields (ΦF) were obtained comparing the integrated fluorescence of the samples with that of a reference fluorimetric compound with known ΦF.
The fluorescence lifetime was determined in homemade equipment composed of a LED that produces a light pulse for exciting the sample, a sample holder, detector and optics. […]
This is indicative of negligible aggregation between the molecules, which exist mostly as monomers at these concentrations in the solvents studied. […] The same table also presents triplet lifetimes (τT) in air and N2 saturated solutions, fluorescence lifetime (τS), the quantum yields of fluorescence (ΦF), triplet state formation (ΦT), and singlet oxygen generation (ΦΔ) in ethanol, and photodegradation quantum yield (Φpd) in methanol:PBS (3:2). […]

[2] = Photobleaching (photodecomposition quantum yield); format: physicochemical; details: methanol:PBS (3:2)
[3] = test system: A549 (human lung adenocarcinoma) cell line; test: In vitro phototoxicity / dark toxicity towards A549 cells; format: cell-based
Protocol: Phototoxicity towards cancer cell lines was evaluated in vitro using A549 (human lung adenocarcinoma) and CT26 (mouse colon adenocarcinoma) cell lines. The cells were cultured in Dulbecco's modified Eagles's medium (DMEM) supplemented with 10% heat-inactivated fetal bovine serum and 1% penicillin. Cells were plated at a density of 20,000/well and 15,000/well respectively, in flat-bottom 96-well plates. On the following day, diluted solutions of the test compound were prepared (1 mM stock) and added to the cells for 30-min incubation. […] The wells were washed two times with PBS and irradiated after 30-min of incubation using the LED light described above. Light dose was 1 J/cm^2. The medium was replaced with fresh one after irradiation and the plates were incubated for 24 h, at which time the cellular viability was assessed by resazurin method using a microplate spectrophotometer (Synergy HT Biotek).
This example describes the evaluation of in vitro phototoxicity of a carboxamide bacteriochlorin with formula IX after light irradiation, and their potential for PDT of cancer. The formulation employed was the same as that of Example 4. […] The phototoxicity was measured according to the description in the Materials and Methods section. The phototoxicity of the test compound was assessed in terms of the percentage of survival of the cells for various concentrations of the test compound incubated for 30 min, followed by washings with PBS, addition of the culture medium and illumination with a light dose of 1 J/cm^2.

**Q.** With `CNC(=O)c1c2nc(c(-c3c(F)cccc3F)c3ccc(cc4nc(c(-c5c(F)cccc5F)c5ccc1[nH]5)CC4)[nH]3)CC2` [formula IX, 5-methylcarboxamide-10,20-bis-(2,6-difluorophenyl)bacteriochlorin] as the compound, how does the “ΦF fluorescence quantum yield” value [1] read?
**A.** 0.20

**Q.** What about the τS fluorescence lifetime [1] of the same compound?
**A.** 3.2 ns

**Q.** What about the “Φpd photodecomposition quantum yield” value [2] of the same compound?
**A.** 1.5 10^−4

**Q.** What about the IC50 ([3]; 30 min incubation, irradiated with 1 J/cm^2) of the same compound?
**A.** 2.5 nM

**Q.** What about the “photosensitizer concentration at which nearly all cells are killed” value ([3]; A549, 30 min incubation, 1 J/cm^2 (FIG. 6)) of the same compound?
**A.** 50 nM

**Q.** What about the “concentration with no signs of toxicity in the dark” value ([3]; A549, incubation in the dark for 30 min) of the same compound?
**A.** up to 40 μM
